Test results reported in patent publication US20190038714A1, “ANTI-INFLAMMATORY COMPOSITION COMPRISING CLAVASPIRIN PEPTIDE ANALOGUE AS EFFECTIVE INGREDIENT” (INDUSTRY-ACADEMIC COOPERATION FOUNDATION, CHOSUN UNIVERSITY, priority 2015, published 2019).
Ends that are not written are not given here.

Key:
S. aureus MRSA 2-122 = conditions: 24 hours at 37° C.
S. aureus MRSA 0027 = conditions: 24 hours at 37° C.
S. aureus MRSA 1635 = conditions: 24 hours at 37° C.
[1] = test system: Bacillus subtilis, KCTC 1918; test: Growth minimum inhibitory concentration (MIC), microtiter broth dilution; format: cell-based; conditions: B. subtilis; 12 hours at 37° C.
Source text: (§1) To compare the antimicrobial activity of the peptide produced by the method of Example 1, the inventors of the present invention measured the growth minimum inhibitory concentration (MIC), which is minimum concentration of the peptide showing no dissociation of bacterial cells.
(§2) Specifically, E. coli (Escherichia coli, ATCC 25922), and P. aeruginosa (Pseudomonas aeruginosa, ATCC 15692), S. typhimurium (Salmonella typhimurium, KTCC 1926), and P. vulgaris (Proteus vulgaris, KCTC 2433 as Gram-negative bacteria, and S. aureus (Staphylococcus aureus, ATCC 25923), L. monocytogenes (Listeria monocytogenes, ATCC 19115), B. subtilis (Bacillus subtilis, KCTC 1918), and S. epidermidis (Staphylococcus epidermidis, KCTC 3096) as Gram-positive bacteria were used after obtaining them from American Type Culture Collection (ATCC) or Korean Cell Line Bank. Each bacterial cell line was cultured in LB medium (1% bacto tryptone, 0.5% bacto yeast extract, and 1% sodium chloride; Sigma, USA) to a mid-log phase at pH of 5.5 or 7.4. After that, the cells were diluted in 1% bacto peptone medium (Difco, USA) to have cell body concentration of 5×10^5 cells/100 μl, and then inoculated to a microtiter plate (NUNC, USA). Thereafter, each of CSP-4 peptide synthesized in Example 1 above and the mother peptide was diluted, 1/2 times for each, at pH of 5.5 or 7.4 in a 96-well plate. After adding the cells to the plate, the cells were cultured for 12 hours at 37° C. Then, the absorbance was measured at a wavelength of 620 nm by using a microtiter plate reader (Merck Elisa reader, Germany) to determine the MIC value of each bacterial strain.

[2] = test system: Pseudomonas aeruginosa, ATCC 15692; test: as above; format: cell-based; conditions: P. aeruginosa; 12 hours at 37° C.
Source text: as §1, §2

[3] = test system: Staphylococcus aureus, ATCC 25923; test: as above; format: cell-based; conditions: S. aureus; 12 hours at 37° C.
Source text: as §1, §2

[4] = test system: Listeria monocytogenes, ATCC 19115; test: as above; format: cell-based; conditions: L. monocytogenes; 12 hours at 37° C.
Source text: as §1, §2

[5] = test system: Staphylococcus epidermidis, KCTC 3096; test: as above; format: cell-based; conditions: S. epidermidis; 12 hours at 37° C.
Source text: as §1, §2

[6] = test system: Salmonella typhimurium, KTCC 1926; test: as above; format: cell-based; conditions: S. typhimurium; 12 hours at 37° C.
Source text: as §1, §2

[7] = test system: Escherichia coli, ATCC 25922; test: as above; format: cell-based; conditions: 12 hours at 37° C., pH of 5.5 or 7.4 (not given)
Source text: as §1, §2

[8] = test system: Proteus vulgaris, KCTC 2433; test: as above; format: cell-based; conditions: P. vulgaris; 12 hours at 37° C.
Source text: as §1, §2

S. aureus MRSA 1630 = conditions: 24 hours at 37° C.
S. aureus MRSA 5159 = conditions: 24 hours at 37° C.
S. aureus MRSA 3-359 = conditions: 24 hours at 37° C.
S. aureus MRSA 1870 = conditions: 24 hours at 37° C.
S. aureus MRSA 5156 = conditions: 24 hours at 37° C.
S. aureus MRSA 3511 = conditions: 24 hours at 37° C.
S. aureus MRSA 3518 = conditions: 24 hours at 37° C.
S. aureus MRSA 5157 = conditions: 24 hours at 37° C.
S. aureus MRSA 3126 = conditions: 24 hours at 37° C.
human erythrocyte = test: Erythrocyte hemolytic activity; format: cell-based; conditions: for Erythrocyte disrupting ability %: 1 hour at 37° C., Triton X-100 = 100%
Protocol: To compare the cytotoxicity among the peptides that are produced by the method of Example 1, erythrocyte hemolytic activity of the synthesized peptide was measured.
Specifically, human erythrocyte was diluted in physiological saline (PBS, pH 7.0) to have concentration of 8%, and clavaspirin, CSP-4, and melittin peptide were serially diluted (i.e., dilution to 1/2 concentration from higher concentration for each dilution) followed by reaction for 1 hour at 37° C. After that, the amount of hemoglobin contained in a supernatant collected by centrifuge at 1,000×g was determined by measuring the absorbance at a wavelength of 414 nm. As a control group to be used as a reference for cell disruption level, the supernatant collected by a treatment with 1% Triton X-100 (Sigma, USA) and a reaction for 1 hour at 37° C. was used for absorbance measurement. By setting the erythrocyte hemolytic activity of Triton X-100 at 100%, the hemolytic activity of the above peptides was calculated using the following mathematical equation 1.
Erythrocyte disrupting ability (hemolysis) (%)=(Absorbance A−Absorbance B)/(Absorbance C−Absorbance B)×100 [Mathematical equation 1]
(in the above equation, Absorbance A indicates the absorbance of a reaction solution treated with each peptide, in which the absorbance is measured at a wavelength of 414 nm; Absorbance B indicates the absorbance of a reaction solution treated with PBS, in which the absorbance is measured at a wavelength of 414 nm; and Absorbance C indicates the absorbance of a reaction solution treated with 1% Triton X-100, in which the absorbance is measured at a wavelength of 414 nm).

Substance	MIC (S. aureus MRSA 2-122) [µM]	MIC (S. aureus MRSA 0027) [µM]	MIC (S. aureus MRSA 1635) [µM]	Growth minimum inhibitory concentration [1] [µM]	Growth minimum inhibitory concentration [2] [µM]	Growth minimum inhibitory concentration [3] [µM]	Growth minimum inhibitory concentration [4] [µM]	Growth minimum inhibitory concentration [5] [µM]	Growth minimum inhibitory concentration [6] [µM]	Growth minimum inhibitory concentration [7] [µM]	Growth minimum inhibitory concentration [8] [µM]	MIC (S. aureus MRSA 1630) [µM]	MIC (S. aureus MRSA 5159) [µM]	MIC (S. aureus MRSA 3-359) [µM]	MIC (S. aureus MRSA 1870) [µM]	MIC (S. aureus MRSA 5156) [µM]	MIC (S. aureus MRSA 3511) [µM]	MIC (S. aureus MRSA 3518) [µM]	MIC (S. aureus MRSA 5157) [µM]	MIC (S. aureus MRSA 3126) [µM]	also measured
FLRFIGSVIHGIGHLVHHIGVAL-NH2 [Clavaspirin]	8	16	16	16	32	16	16	4	32	2	8	8	32	16	8	8	8	8	8	16	Erythrocyte disrupting ability % (human erythrocyte; peptide 25 μM): 100%; Erythrocyte disrupting ability % (human erythrocyte; peptide 50 μM): 100%; Erythrocyte disrupting ability % (human erythrocyte; peptide 100 μM): 100%; Erythrocyte disrupting ability % (human erythrocyte; peptide 200 μM): 100%; Erythrocyte disrupting ability % (human erythrocyte; peptide 400 μM): 100%
FLRFIGSVKHGKGHLVHHIGVAL-NH2 [CSP-4]	8	8	8	4	32	8	4	4	64	2	4	8	8	8	8	8	8	8	8	8	hemolysis (FIG. 1) (human erythrocyte; at 500 μg/ml): less than 1%; hemolytic activity (human erythrocyte; concentration of 200 μM or less): almost no hemolytic activity; Erythrocyte disrupting ability % (human erythrocyte; peptide 25 μM): 0%; Erythrocyte disrupting ability % (human erythrocyte; peptide 50 μM): 0%; Erythrocyte disrupting ability % (human erythrocyte; peptide 100 μM): 0%; Erythrocyte disrupting ability % (human erythrocyte; peptide 200 μM): 1%; Erythrocyte disrupting ability % (human erythrocyte; peptide 400 μM): 10%
